Target: T1, SIRT1 (Homo sapiens, UniProt Q96EB6)
T1 sequence (Q96EB6 1-747): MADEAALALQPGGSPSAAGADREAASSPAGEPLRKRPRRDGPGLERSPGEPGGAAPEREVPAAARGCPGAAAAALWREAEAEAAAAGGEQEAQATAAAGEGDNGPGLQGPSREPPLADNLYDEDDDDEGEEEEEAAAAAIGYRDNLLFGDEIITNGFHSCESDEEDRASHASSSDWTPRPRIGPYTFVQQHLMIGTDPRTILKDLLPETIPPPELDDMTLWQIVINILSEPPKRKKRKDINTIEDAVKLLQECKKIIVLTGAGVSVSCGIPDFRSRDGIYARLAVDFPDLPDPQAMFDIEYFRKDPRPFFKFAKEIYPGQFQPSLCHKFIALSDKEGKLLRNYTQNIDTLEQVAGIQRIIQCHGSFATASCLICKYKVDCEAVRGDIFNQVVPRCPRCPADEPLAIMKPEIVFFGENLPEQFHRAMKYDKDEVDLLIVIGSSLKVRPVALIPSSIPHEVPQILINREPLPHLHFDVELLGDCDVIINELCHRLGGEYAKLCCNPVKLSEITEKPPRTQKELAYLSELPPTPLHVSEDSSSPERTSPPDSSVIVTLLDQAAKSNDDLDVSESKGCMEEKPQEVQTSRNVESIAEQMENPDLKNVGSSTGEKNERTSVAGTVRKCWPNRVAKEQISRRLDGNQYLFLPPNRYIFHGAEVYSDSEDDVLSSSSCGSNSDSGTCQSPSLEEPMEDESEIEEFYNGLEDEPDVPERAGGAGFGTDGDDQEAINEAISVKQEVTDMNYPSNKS
Assay: Trp mass spectrometry assay of SIRT1 activity (EC1.5, percent maximum activation)
Format: biochemical
Conditions: Trp mass spectrometry assay; for TRP Activity (EC1.5): EC1.5 = concentration giving 150% activation of SIRT1
Outline: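 Activation values derive from mass-spectrometric measurement of NAD-dependent deacetylation product after a 25 min reaction of bacterially expressed His-tagged SIRT1 with a fluorophore-labelled Trp peptide.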

[1] = percent maximum activation of SIRT1
[2] = 0.5 μM peptide substrate, 120 μM βNAD+, 10 nM SIRT1, 25 minutes at 25° C.

| TRP Activity (EC1.5) | TRP MAX RESP (percent maximum fold activation) [1] | TRP Activity (EC1.5, concentration of test compound that results in 150% activation of SIRT1) [2] | TRP MAX RESP (percent maximum fold activation) [2] | SMILES |
| --- | --- | --- | --- | --- |
| A (EC1.5<1 μM) | A (Fold activation ≧150%) | – | – | O=C(Nc1ccnc(OC[C@@H](O)CO)c1)N1c2nc(-c3cccc(C(F)(F)F)c3)c(Cl)cc2N2CC[C@H]1C2 [Example 61, (4S)-8-chloro-N-(2-((S)-2,3-dihydroxypropoxy)pyridin-4-yl)-7-(3-(trifluoromethyl)phenyl)-3,4-dihydro-1,4-methanopyrido[2,3-b][1,4]diazepine-5(2H)-carboxamide] |
| C (EC1.5>25 μM) | B (Fold Activation <150%) | – | – | Cc1cc(-c2nc3c(cc2Cl)N2CC[C@@H](C2)N3C(=O)Nc2ccnc(O[C@@H]3CCOC3)n2)ccn1 [Example 22, (4S)-8-chloro-7-(2-methylpyridin-4-yl)-N-(2-(((R)-tetrahydrofuran-3-yl)oxy)pyrimidin-4-yl)-3,4-dihydro-1,4-methanopyrido[2,3-b][1,4]diazepine-5(2H)-carboxamide] |
| – | – | B (EC1.5 1-25 μM) | A (Fold activation ≧150%) | Cc1cc(-c2ccc3c(n2)N(C(=O)Nc2cnccn2)[C@H]2CCN3C2)cnc1C#N [Example 222, (4S)-7-(6-cyano-5-methylpyridin-3-yl)-N-(pyrazin-2-yl)-3,4-dihydro-1,4-methanopyrido[2,3-b][1,4]diazepine-5(2H)-carboxamide] |
| C (EC1.5>25 μM) | A (Fold activation ≧150%) | – | – | Cc1cc(-c2ccc3c(n2)N(C(=O)Nc2cncnc2)[C@H]2CCN3C2)ccn1 [Example 163, (4S)-7-(2-methylpyridin-4-yl)-N-(pyrimidin-5-yl)-3,4-dihydro-1,4-methanopyrido[2,3-b][1,4]diazepine-5(2H)-carboxamide] |

The remaining lines, values behind:

| SMILES | TRP Activity (EC1.5) | TRP MAX RESP (percent maximum fold activation) [1] | TRP Activity (EC1.5, concentration of test compound that results in 150% activation of SIRT1) [2] | TRP MAX RESP (percent maximum fold activation) [2] |
| --- | --- | --- | --- | --- |
| Cc1ccc(-c2nc3c(cc2Br)N2CC[C@@H](C2)N3C(=O)Nc2cccnc2)cn1 [Example 6, (4S)-8-bromo-7-(6-methylpyridin-3-yl)-N-(pyridin-3-yl)-3,4-dihydro-1,4-methanopyrido[2,3-b][1,4]diazepine-5(2H)-carboxamide] | B (EC1.5 1-25 μM) | A (Fold activation ≧150%) | – | – |
| Cc1cc(-c2ccc3c(n2)N(C(=O)Nc2cnccn2)[C@H]2CCN3C2)cc(C)n1 [Example 135, (4S)-7-(2,6-dimethylpyridin-4-yl)-N-(pyrazin-2-yl)-3,4-dihydro-1,4-methanopyrido[2,3-b][1,4]diazepine-5(2H)-carboxamide] | – | A (Fold activation ≧150%) | – | – |
| Cc1ncc(-c2ccc3c(n2)N(C(=O)Nc2cnccn2)[C@H]2CCN3C2)cn1 [Example 165, (4S)-7-(2-methylpyrimidin-5-yl)-N-(pyrazin-2-yl)-3,4-dihydro-1,4-methanopyrido[2,3-b][1,4]diazepine-5(2H)-carboxamide] | B (EC1.5 1-25 μM) | A (Fold activation ≧150%) | – | – |
| CCn1cc(-c2nc3c(cc2Cl)N2CC[C@@H](C2)N3C(=O)Nc2ccnc(OC[C@@H](O)CO)c2)cn1 [Example 199, (4S)-8-chloro-N-(2-((S)-2,3-dihydroxypropoxy)pyridin-4-yl)-7-(1-ethyl-1H-pyrazol-4-yl)-3,4-dihydro-1,4-methanopyrido[2,3-b][1,4]diazepine-5(2H)-carboxamide] | B (EC1.5 1-25 μM) | A (Fold activation ≧150%) | – | – |
| Cc1cc(-c2nc3c(cc2Cl)N2CC[C@@H](C2)N3C(=O)Nc2cc(OC[C@@H](O)CO)ccn2)ccn1 [Example 27, (4S)-8-chloro-N-(4-((S)-2,3-dihydroxypropoxy)pyridin-2-yl)-7-(2-methylpyridin-4-yl)-3,4-dihydro-1,4-methanopyrido[2,3-b][1,4]diazepine-5(2H)-carboxamide] | B (EC1.5 1-25 μM) | A (Fold activation ≧150%) | – | – |

— patent US20170355705A1 (GlaxoSmithKline Intellectual Property (No.2) Limited, priority 2014, published 2017)
